ChEMBL document CHEMBL5620415, “Design, synthesis and anti-hepatic fibrosis activity of novel diphenyl vitamin D receptor agonists” (Eur J Med Chem, 2023)
Active and inactive are the calls of the source. No cut-off for these calls is given here.

Assays:
[1] = Toxicity in CCl4-induced hepatic fibrosis C57BL/6 mouse model assessed as serum hypercalcemia at 100 ug/kg, po five times a week for 2 weeks by calcium assay kit; type: organism-based; settings: in vivo, 0.1 mg/kg, 336 h, dose 100 µg/kg
[2] = target: T1, Vitamin D3 receptor (Homo sapiens) (UniProt P11473); assay: Binding affinity to human full-length Vitamin D receptor assessed as relative binding affinity at 1 uM incubated for 2 hrs by fluorescence polarization based competitive binding assay relative to calcipotriol; settings: filed as agonist
T1 sequence (whole entry): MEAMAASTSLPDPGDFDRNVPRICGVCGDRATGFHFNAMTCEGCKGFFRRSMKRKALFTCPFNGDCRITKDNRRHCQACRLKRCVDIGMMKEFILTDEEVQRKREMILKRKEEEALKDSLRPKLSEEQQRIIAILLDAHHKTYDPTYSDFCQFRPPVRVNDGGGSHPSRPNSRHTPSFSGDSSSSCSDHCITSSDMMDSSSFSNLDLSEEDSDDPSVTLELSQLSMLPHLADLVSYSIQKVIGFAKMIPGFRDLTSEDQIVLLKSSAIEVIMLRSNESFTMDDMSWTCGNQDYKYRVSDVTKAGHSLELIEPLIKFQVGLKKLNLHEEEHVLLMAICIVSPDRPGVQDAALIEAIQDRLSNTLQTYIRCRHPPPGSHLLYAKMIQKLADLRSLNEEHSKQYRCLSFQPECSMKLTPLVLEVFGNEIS

[3] = Cytotoxicity against human LX-2 cells by CCK-8 assay; type: toxicity, cell-based
[4] = target: T1, Vitamin D3 receptor (Homo sapiens); assay: Agonist activity at Vitamin D receptor in human LX-2 cells assessed as transcriptional activity by measuring induction of CYP24A expression at 0.5 uM by RT-qPCR analysis relative to control; type: cell-based; settings: filed as agonist
[5] = target: T1, Vitamin D3 receptor (Homo sapiens); assay: Agonist activity at Vitamin D receptor in HEK293 cells assessed as receptor transactivation incubated for 48 hrs by dual-luciferase reporter assay; type: cell-based; settings: filed as agonist, dose 0.01-1 µM
[6] = test system: LX-2; assay: Inhibition of TGF-beta1 induced human LX-2 cell activation assessed as inhibition of collagen I expression at 0.5 uM by Western blot analysis relative to control; type: functional, cell-based
[7] = test system: LX-2; assay: Inhibition of TGF-beta1 induced human LX-2 cell activation assessed as inhibition of alpha-SMA expression at 0.5 uM by Western blot analysis relative to control; type: functional, cell-based
[8] = test system: Mus musculus; assay: Anti-fibrotic effect in improving CCl4-induced hepatic fibrosis C57BL/6 mouse model assessed as uniform liver parenchyma at 500 ug/kg, po five times a week for 2 weeks by qualitative ultrasound imaging analysis; type: functional, organism-based; settings: dose 500.0 µg/kg
[9] = test system: Mus musculus; assay: Anti-fibrotic effect in improving CCl4-induced hepatic fibrosis C57BL/6 mouse model assessed as decrease in liver to kidney brightness ratio at 500 ug/kg, po five times a week for 2 weeks by qualitative ultrasound imaging analysis; type: functional, organism-based; settings: dose 500.0 µg/kg
[10] = test system: Mus musculus; assay: Anti-fibrotic effect in CCl4-induced hepatic fibrosis C57BL/6 mouse model assessed as reduction in hepatic fibrosis lesions at 500 ug/kg, po five times a week for 2 weeks by Hematoxylin-Eosin (H&E) staining based assay; type: functional, organism-based; settings: dose 500.0 µg/kg
[11] = test system: Mus musculus; assay: Anti-fibrotic effect in CCl4-induced hepatic fibrosis C57BL/6 mouse model assessed as reduction the lesions at 500 ug/kg, po five times a week for 2 weeks by Hematoxylin-Eosin (H&E) staining based assay; type: functional, organism-based; settings: dose 500.0 µg/kg
[12] = test system: Mus musculus; assay: Anti-fibrotic effect in CCl4-induced hepatic fibrosis C57BL/6 mouse model assessed as decrease in inflammatory cell infiltration at 500 ug/kg, po five times a week for 2 weeks by Hematoxylin-Eosin (H&E) staining based assay; type: functional, organism-based; settings: dose 500.0 µg/kg
[13] = test system: Mus musculus; assay: Anti-fibrotic effect in CCl4-induced hepatic fibrosis C57BL/6 mouse model assessed as inhibition of proliferation of fibrous tissue at 500 ug/kg, po five times a week for 2 weeks by Hematoxylin-Eosin (H&E) staining based assay; type: functional, organism-based; settings: dose 500.0 µg/kg
[14] = test system: Mus musculus; assay: Anti-fibrotic effect in CCl4-induced hepatic fibrosis C57BL/6 mouse model assessed as inhibition of collagen deposition at 500 ug/kg, po five times a week for 2 weeks by Hematoxylin-Eosin (H&E) staining based assay; type: functional, organism-based; settings: dose 500.0 µg/kg
[15] = test system: Mus musculus; assay: Anti-fibrotic effect in CCl4-induced hepatic fibrosis C57BL/6 mouse model assessed as reduction in hepatic fibrosis lesions at 500 ug/kg, po five times a week for 2 weeks by Masson's Trichrome staining based assay; type: functional, organism-based; settings: dose 500.0 µg/kg
[16] = test system: Mus musculus; assay: Anti-fibrotic effect in CCl4-induced hepatic fibrosis C57BL/6 mouse model assessed as reduction the lesions at 500 ug/kg, po five times a week for 2 weeks by Masson's Trichrome staining based assay; type: functional, organism-based; settings: dose 500.0 µg/kg
[17] = test system: Mus musculus; assay: Anti-fibrotic effect in CCl4-induced hepatic fibrosis C57BL/6 mouse model assessed as decrease in inflammatory cell infiltration at 500 ug/kg, po five times a week for 2 weeks by Masson's Trichrome staining based assay; type: functional, organism-based; settings: dose 500.0 µg/kg
[18] = test system: Mus musculus; assay: Anti-fibrotic effect in CCl4-induced hepatic fibrosis C57BL/6 mouse model assessed as inhibition of proliferation of fibrous tissue at 500 ug/kg, po five times a week for 2 weeks by Masson's Trichrome […] staining based assay; type: functional, organism-based; settings: dose 500.0 µg/kg
[19] = test system: Mus musculus; assay: Anti-fibrotic effect in CCl4-induced hepatic fibrosis C57BL/6 mouse model assessed as inhibition of collagen deposition at 500 ug/kg, po five times a week for 2 weeks by Masson's Trichrome […] staining based assay; type: functional, organism-based; settings: dose 500.0 µg/kg
[20] = test system: Mus musculus; assay: Anti-fibrotic effect in CCl4-induced hepatic fibrosis C57BL/6 mouse model assessed as inhibition of serum AST level at 500 ug/kg, po five times a week for 2 weeks; type: functional, organism-based; settings: dose 500.0 µg/kg
[21] = test system: Mus musculus; assay: Anti-fibrotic effect in CCl4-induced hepatic fibrosis C57BL/6 mouse model assessed as inhibition of serum ALT level at 500 ug/kg, po five times a week for 2 weeks; type: functional, organism-based; settings: dose 500.0 µg/kg
[22] = test system: Mus musculus; assay: Anti-fibrotic effect in CCl4-induced hepatic fibrosis C57BL/6 mouse model assessed as inhibition of serum total bile acid (TBA) level at 500 ug/kg, po five times a week for 2 weeks; type: functional, organism-based; settings: dose 500.0 µg/kg

Question: With `C=C1/C(=C\C=C2/CCC[C@]3(C)[C@@H]([C@H](C)/C=C/[C@@H](O)C4CC4)CC[C@@H]23)C[C@@H](O)C[C@@H]1O` [CALCIPOTRIENE] as the compound, how does the Activity [1] read?
Answer: The Activity was “Non-Toxic”.

Question: Which results are given for `CCC(Oc1ccc(CO)c(CO)c1)c1cccc(OCCCC(O)(CC)CC)c1` (configuration not stated)?
Answer: RBA [2]: 54.3%; IC50 [3]: > 30 µM; Activity [4]: Active; Activity [5]: Dose-Dependent Effect; inhibition [6]: Active; inhibition [7]: Active; Activity [8]: Active; Activity [9]: Active; Activity [10]: Active; Activity [11]: Active; Activity [12]: Active; Activity [13]: Active; Activity [14]: Active; Activity [15]: Active; Activity [16]: Active; Activity [17]: Active; Activity [18]: Active; Activity [19]: Active; Activity [20]: Active; Activity [21]: Active; Activity [22]: Active
